Here are results for two compounds from patent US11058781B2, “Diazacarbazole derivatives as tau-PET-ligands” (Hoffmann-La Roche Inc., priority 2013, dated 2021).

Assay [1] relates to native tau aggregates. Briefly: TAU radioligand in-vitro displacement assay ([3H]T808 autoradiography on AD brain sections). Format: binding. The note with it: human AD brain sections; radioligand [3H]T808 10 nM; 50 mM Tris pH 7.4, room temperature, 30 min. How it is done:
This in vitro binding assay assesses the affinity of compounds for native tau aggregates. The compounds are co-incubated with the well-established tau specific radioligand [^3H]T808 and the compound's displacement potency of [^3H]T808 binding is determined by in vitro autoradiography using human Alzheimer's disease (AD) brain sections (see FIG. 2).
AD human brains are purchased from Banner Sun Health Research Institute (Sun City, Ariz., USA). Pathological diagnosis of AD is made according to standard NIA-Reagan Institute criteria based on neuropathological data. The radioligand [^3H]T808 was synthesized in-house ([^3H]-2-[4-(2-Fluoro-ethyl)-piperidin-1-yl]-benzo[4,5]imidazo[1,2-a]pyrimidine, radiochemical purity 99.0%). […] For the autoradiography FujiFilm Imaging Plates (BAS-IP TR 2025) are exposed to the sections and read with a FujiFilm IP reader (BAS-5000). […]
The signal intensity (Dens−PSL/mm2) in the region of interest (ROI) of the autoradiogram is quantified with the software MCID analysis (version 7.0, Imaging Research Inc.). The specific binding (SB) of [^3H]T808 binding in absence or in presence of a compound is calculated by subtracting the non-specific binding signal in the white matter, thus yielding SB[3H]T808 only and SBcompound. The % displacement by the various compounds is calculated as following: % displacement=100−(SBcompound/SB[3H]T808 only)*100. […]

In assay [2] the test system is tau aggregates. Briefly: Autoradiogram of the tritiated radioligand on a human cortical brain section (Braak V AD patient). Format: binding. The note with it: radioligand concentration 3.2 nM, Braak V staged AD patient. Here is the method:
FIG. 1: Autoradiogram of ^3H-2-(6-fluoro-pyridin-3-yl)-9H-dipyrido[2,3-b;3′,4′-d]pyrrole.
Autoradiogram of ^3H-2-(6-fluoro-pyridin-3-yl)-9H-dipyrido[2,3-b;3′,4′-d]pyrrole incubated with a human cortical brain section obtained from a Braak V staged AD patient. The radioligand concentration was 3.2 nM.

tau aggregates, sequence (P10636 623-708 limits assumed): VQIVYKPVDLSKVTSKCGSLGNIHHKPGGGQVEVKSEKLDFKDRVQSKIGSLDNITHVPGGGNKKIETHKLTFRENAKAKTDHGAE

`Fc1ccc(-c2ccc3c(n2)[nH]c2ccncc23)cn1` [Example 1, 2-(6-Fluoro-pyridin-3-yl)-9H-dipyrido[2,3-b;3′,4′-d]pyrrole]: the “% displacement of [^3H]T808 (10 nM)” value in assay [1] is listed as 43%. Turning to “^3H-2-(6-Fluoro-pyridin-3-yl)-9H-dipyrido[2,3-b;3′,4′-d]pyrrole [Example 2]”, the “staining pattern in autoradiogram” value in assay [2] is recorded as “punctate staining of tau aggregates in a layered distribution pattern”.
